# Values joined by “and” are separate entries in the source; they are usually repeats but may differ in a detail not shown here. Equal values may be shown once.
# Experiments:
# Human plasma = experiment: Ultracentrifugation plasma protein binding assay, human plasma; type: in vitro ADME; settings: 10000 nM
# Procedure: (§1) Information on the chemicals and materials used in the plasma protein binding work can be found in Supplementary Text S10 and Table S3. Human and rodent plasma were evaluated for plasma protein binding using ultracentrifugation, as previously described. Working solutions of 3 mM of HFPO-DA, HFPO-TA, and HFPO-TeA were prepared separately in ethanol, with each working solution containing 3 mM of testosterone (Sigma-Aldrich; ≥98% pure) as a reference compound for assay performance. An aliquot of each stock solution (13.3 µL) was added to separate 15 mL tubes with 3.987 mL of plasma for a final assay concentration of 10 µM. The plasma solutions were incubated at 37 °C and 125 rpm for 60 min. One-hour stability samples (T60 min) were drawn in triplicate and diluted in four volumes of plasma ultrafiltrate. Aliquots (1 mL) from each plasma solution were drawn in triplicate and transferred to polycarbonate tubing. These samples underwent ultracentrifugation (Beckman OptimaMax; Beckman Coulter Inc., Brea, CA, USA) at 850,000× g for 4 h at 37 °C.
# (§2) The remaining plasma solutions were returned for incubation at 37 °C and 125 rpm for an additional 4 h. Five-hour stability samples (T300 min) were then drawn in triplicate and diluted in four volumes of plasma ultrafiltrate. After ultracentrifugation, the aqueous fraction (AF) was collected by transferring the supernatant to a new tube and diluting in an equal volume of plasma for matrix matching. All samples were combined with 3 volumes of ice-cold ACN containing 16 ng/mL of ^13C3-HFPO-DA and 16 ng/mL of ^13C-Testosterone (Cambridge Isotope Laboratories; 98% pure). Samples were vigorously mixed, stored for 10 min at −20 °C, and then centrifuged at 12,000× g for 10 min at 4 °C. Supernatants were collected then stored at −70 °C prior to analysis.
# (§3) Fraction unbound (fu) in plasma (fup) and percent stability calculations are detailed in Supplementary Text S10. Hepatic clearance, the fu in blood (fub) (fu in plasma adjusted for blood:plasma partitioning), and renal clearance were used to derive the steady-state concentration (Css) of each compound that will be used for in vitro–in vivo extrapolation (IVIVE). Renal clearance was calculated using the glomerular filtration rate (a species-dependent constant) and the fub. The Css calculation is detailed in Supplementary Text S11.
# (§4) The gradient is available in Table S11. […]
# (§5) Chemical stability in plasma was assessed
# (§6) (F) Percent Stability = T300minutesT60minutes∗100
# [1] = as above; type: in vitro ADME; settings: both sexes, human
# Procedure: as §1, §2, §3, §4, §5, §6
# rat hepatocytes = experiment: Hepatocyte metabolic stability (clearance) assay, rat hepatocytes
# Procedure: Information on the chemicals and materials used in the hepatocyte metabolic work can be found in Supplementary Text S9 and Table S3. In vitro evaluations of hepatocyte metabolic stability were performed in human and rat hepatocytes, as previously described. Briefly, pooled, cryopreserved hepatocyte suspensions were thawed, assessed for viability, and then diluted in William’s medium E containing dexamethasone and cell maintenance cocktail B to achieve a cell density of 50,000 cells/100 µL. The assay was started by adding hepatocyte suspensions to wells of 96-well polypropylene plates containing an equal volume of media with 2 µM of analyte (final assay concentration: 1 µM). Plates were placed in a 37 °C cell culture incubator (5% CO2) on a shaker set to 200 rpm. Time points assessed were T0, T15, T30, T60, T120, and T240 min. At each time point, the plates were removed from the shaker and the incubates were crashed with an equal volume of ice-cold ACN containing 1.2% FA and 16 ng/mL of ^13C3 -HFPO-DA. After chilling and centrifugation at 4122× g, the supernatants were transferred to new collection plates and stored at −70 °C until analysis for the parent compound on the Waters instrumentation described below. Immediately prior to analysis, samples were thawed, vortexed, and centrifuged at 4200× g, and then diluted 1:4 in 95:5 H2O/ACN with 2.5 mM of ammonium acetate. Negative controls, including no cell controls and metabolically inactivated hepatocytes, were run concurrently to assess the chemical stability over the time course.
# Intrinsic clearance (Clint; hepatic clearance) calculations are detailed in Supplementary Text S9 [57].
# Targeted, quantitative analysis of in vitro hepatocyte metabolic stability and plasma protein binding assay samples was conducted on a Waters Xevo-TQS micro mass spectrometer (Waters, Milford, MA, USA) ultra-high-performance liquid chromatography tandem mass spectrometry system (UPLC-MS/MS), modified with a PFAS analysis kit. Samples were analyzed in negative ion mode with UniSpray ionization. A CORTECS T3 column (Waters CORTECS, 3 × 100 mm, particle size 2.7 µm) was used for chromatographic separation with a flow rate of 0.6 mL/min and a temperature of 55 °C. Gradient elution was used with eluent A (95:5 H2O/ACN) and eluent B (95:5 ACN/H2O) with 2.5 mM of ammonium acetate. The gradient is available in Table S11. Additional details for MS parameters are found in Table S12 and monitored transitions are found in Table S13.
# Table S2: Data processing parameters used with Sciex MarkerView 1.3.1.
# Support ing Text S9: Hepatocyte Metabolic Stability Assay Materials, Chemicals, and Calculations
# Pooled human and rat cryopreserved primary hepatocyte suspensions were both obtained from
# BioIVT, a US Food and Drug Administration-licensed and inspected donor center, and produced using
# non-transplantable tissue.
# William’s E media, dexamet hasone (98% pure), and cell maintenance cocktail B were obtained from
# Thermo Fisher Scientific (Waltham, MA, USA), the OptiThaw hepatocyte kit from Sekisui/Xenotech
# (Tokyo, Japan), and the trypan blue s (Sekisui/ Xenotech, Tokyo, Japan) and the trypan blue solution from […]
# [2] = Ultracentrifugation plasma protein binding assay, rat plasma; type: in vitro ADME; settings: both sexes, Sprague Dawley, rat
# Procedure: as §1, §2, §3, §4, §5, §6
# [3] = system: Sprague Dawley rodent plasma; experiment: as above; type: in vitro ADME; settings: rat plasma, 10000 nM
# Procedure: as §1, §2, §3, §4, §5, §6
structure (smiles),measurement,setting,value
"O=C(O)C(F)(OC(F)(F)C(F)(OC(F)(F)C(F)(F)C(F)(F)F)C(F)(F)F)C(F)(F)F (stereo not shown) [HFPO-TA, perfluoro-(2,5-dimethyl-3,6-dioxanonanoic) acid]",Average Stability (T5hr/ T1hr),Human plasma; 37 °C,1.0308
same,Aqueous Fraction concentration,"Human plasma; after ultracentrifugation, replicates A-C",8.96 nM and 9.6 nM and 15.04 nM
same,Fraction Unbound in plasma (fup),Human plasma; replicates A-C,0.0011 and 0.0015
same,Stability (T5hr/ T1hr),Human plasma; replicates A-C,0.7676 and 1.2763 and 1.0484
same,Time 1 hr concentration,Human plasma; replicates A-C,8.7016 µM and 7.0496 µM and 9.7592 µM
same,Time 5 hr concentration,Human plasma; replicates A-C,6.6792 µM and 8.9976 µM and 10.232 µM
same,"fraction unbound at 4 h, 10 µM","[1]; plasma, 10 µM, ultracentrifugation, read-out: Experimental fup (average fraction unbound in plasma)",0.0013
same,"fraction unbound at 4 h, 10 µM","[1]; pooled human plasma, 10000 nM, replicates A-C, read-out: Fraction Unbound in plasma (fup)",0.0013
same,"Negative Control Data, Heat Treated (HT), 15 min","rat hepatocytes; heat treated rat hepatocytes, 1000 nM, 15 min, Ln concentration, Rep 1-3",4.1725 and 4.8897 and 5.4522
same,"Negative Control Data, Heat Treated (HT), 240 min","rat hepatocytes; heat treated rat hepatocytes, 1000 nM, 240 min, Ln concentration, Rep 1-3",4.9004 and 4.9391 and 4.9107
same,"Negative Control Data, No cells (NC), 15 min","rat hepatocytes; no cells, 1000 nM, 15 min, Ln concentration, Rep 1-3",4.1725 and 4.8897 and 5.4522
same,"Negative Control Data, No cells (NC), 240 min","rat hepatocytes; no cells, 1000 nM, 240 min, Ln concentration, Rep 1-3",3.9230 and 4.2019 and 3.8754
same,Clin vitro,"rat hepatocytes; rat hepatocytes, 1 µM",0 µL/min/106 cells
same,"Ln Concentration, 0 min","rat hepatocytes; suspended rat hepatocytes, 1000 nM, time 0 min, Rep 1-3",4.5979 and 4.6454 and 4.5374
same,"Ln Concentration, 15 min","rat hepatocytes; suspended rat hepatocytes, 1000 nM, time 15 min, Rep 1-3",4.8189 and 4.7145 and 4.8521
same,"Ln Concentration, 30 min","rat hepatocytes; suspended rat hepatocytes, 1000 nM, time 30 min, Rep 1-3",4.7856 and 4.6050 and 4.6111
same,"Ln Concentration, 60 min","rat hepatocytes; suspended rat hepatocytes, 1000 nM, time 60 min, Rep 1-3",4.8438 and 4.7495 and 4.8027
same,"Ln Concentration, 120 min","rat hepatocytes; suspended rat hepatocytes, 1000 nM, time 120 min, Rep 1-3",4.6843 and 4.6317 and 4.5468
same,"Ln Concentration, 240 min","rat hepatocytes; suspended rat hepatocytes, 1000 nM, time 240 min, Rep 1-3",4.7393 and 4.9247 and 4.8505
same,Linear Regression Best-Fit Slope (Ln concentration vs time),"rat hepatocytes; suspended rat hepatocytes, 1000 nM, time in min",0.0003164
same,"fraction unbound at 4 h, 10 µM","[2]; plasma, Rat plasma, 10 µM, ultracentrifugation, read-out: Experimental fup (average fraction unbound in plasma)",0.0018
same,"fraction unbound at 4 h, 10 µM","[2]; rat plasma, 10000 nM, Rep A, read-out: Fraction Unbound in plasma (fup), Rep A",0.00165
same,"fraction unbound at 4 h, 10 µM","[2]; rat plasma, 10000 nM, Rep B, read-out: Fraction Unbound in plasma (fup), Rep B",0.00156
same,"fraction unbound at 4 h, 10 µM","[2]; rat plasma, 10000 nM, Rep C, read-out: Fraction Unbound in plasma (fup), Rep C",0.00223
same,Average Stability (T5hr/ T1hr),[3],1.0261
same,"Aqueous Fraction, Rep A",[3]; Rep A,16.00 nM
same,"Stability (T5hr/ T1hr), Rep A",[3]; Rep A,0.9209
same,"Time 1 hr concentration, Rep A",[3]; Rep A,10.52 µM
same,"Time 5 hr concentration, Rep A",[3]; Rep A,9.688 µM
same,"Aqueous Fraction, Rep B",[3]; Rep B,16.00 nM
same,"Stability (T5hr/ T1hr), Rep B",[3]; Rep B,1.1708
same,"Time 1 hr concentration, Rep B",[3]; Rep B,8.76 µM
same,"Time 5 hr concentration, Rep B",[3]; Rep B,10.256 µM
same,"Aqueous Fraction, Rep C",[3]; Rep C,22.40 nM
same,"Stability (T5hr/ T1hr), Rep C",[3]; Rep C,0.9866
same,"Time 1 hr concentration, Rep C",[3]; Rep C,10.184 µM
same,"Time 5 hr concentration, Rep C",[3]; Rep C,10.048 µM
